ChEMBL document CHEMBL1152288, “Characterization of thien-2-yl 1S,2R-milnacipran analogues as potent norepinephrine/serotonin transporter inhibitors for the treatment of neuropathic pain” (J Med Chem, 2008)

Legend:
[1] = Plasma clearance in monkey at 5 mg/kg, iv or 30 mg/kg, po; format: ADME, organism-based, Macaca mulatta; conditions: rhesus monkey
[2] = Renal clearance in monkey at 5 mg/kg, iv or 30 mg/kg, po; format: ADME, organism-based, Macaca mulatta, Kidney; conditions: rhesus monkey, in vivo; read-out: CL_renal
[3] = Half life in monkey at 5 mg/kg, iv or 30 mg/kg, po; format: ADME, organism-based, Macaca mulatta; conditions: rhesus monkey, in vivo
[4] = Volume of distribution at steady state in monkey at 5 mg/kg, iv or 30 mg/kg, po; format: ADME, organism-based, Macaca mulatta; conditions: rhesus monkey, in vivo, read-out: Vdss
[5] = Cmax in monkey at 5 mg/kg, iv or 30 mg/kg, po; format: ADME, organism-based, Macaca mulatta; conditions: rhesus monkey, in vivo
[6] = Tmax in monkey at 5 mg/kg, iv or 30 mg/kg, po; format: ADME, organism-based, Macaca mulatta; conditions: rhesus monkey, in vivo
[7] = AUC in monkey at 5 mg/kg, iv or 30 mg/kg, po; format: ADME, organism-based, Macaca mulatta; conditions: rhesus monkey, plasma
[8] = Bioavailability in monkey at 5 mg/kg, iv or 30 mg/kg, po; format: ADME, organism-based, Macaca mulatta; conditions: rhesus monkey, in vivo
[9] = Plasma clearance in Beagle dog at 5 mg/kg, iv or 30 mg/kg, po; format: ADME, organism-based, Canis lupus familiaris
[10] = Renal clearance in Beagle dog at 5 mg/kg, iv or 30 mg/kg, po; format: ADME, organism-based, Canis lupus familiaris, Kidney; conditions: in vivo, read-out: CL_renal
[11] = Half life in Beagle dog at 5 mg/kg, iv or 30 mg/kg, po; format: ADME, organism-based, Canis lupus familiaris; conditions: in vivo
[12] = Volume of distribution at steady state in Beagle dog at 5 mg/kg, iv or 30 mg/kg, po; format: ADME, organism-based, Canis lupus familiaris; conditions: in vivo, read-out: Vdss
[13] = Cmax in Beagle dog at 5 mg/kg, iv or 30 mg/kg, po; format: ADME, organism-based, Canis lupus familiaris; conditions: in vivo
[14] = Tmax in Beagle dog at 5 mg/kg, iv or 30 mg/kg, po; format: ADME, organism-based, Canis lupus familiaris; conditions: in vivo
[15] = AUC in Beagle dog at 5 mg/kg, iv or 30 mg/kg, po; format: ADME, organism-based, Canis lupus familiaris; conditions: plasma
[16] = Bioavailability in Beagle dog at 5 mg/kg, iv or 30 mg/kg, po; format: ADME, organism-based, Canis lupus familiaris; conditions: in vivo
[17] = target: T1, Sodium-dependent serotonin transporter (Rattus norvegicus, UniProt P31652); format: cell-based, HEK293
T1 sequence (P31652 whole entry): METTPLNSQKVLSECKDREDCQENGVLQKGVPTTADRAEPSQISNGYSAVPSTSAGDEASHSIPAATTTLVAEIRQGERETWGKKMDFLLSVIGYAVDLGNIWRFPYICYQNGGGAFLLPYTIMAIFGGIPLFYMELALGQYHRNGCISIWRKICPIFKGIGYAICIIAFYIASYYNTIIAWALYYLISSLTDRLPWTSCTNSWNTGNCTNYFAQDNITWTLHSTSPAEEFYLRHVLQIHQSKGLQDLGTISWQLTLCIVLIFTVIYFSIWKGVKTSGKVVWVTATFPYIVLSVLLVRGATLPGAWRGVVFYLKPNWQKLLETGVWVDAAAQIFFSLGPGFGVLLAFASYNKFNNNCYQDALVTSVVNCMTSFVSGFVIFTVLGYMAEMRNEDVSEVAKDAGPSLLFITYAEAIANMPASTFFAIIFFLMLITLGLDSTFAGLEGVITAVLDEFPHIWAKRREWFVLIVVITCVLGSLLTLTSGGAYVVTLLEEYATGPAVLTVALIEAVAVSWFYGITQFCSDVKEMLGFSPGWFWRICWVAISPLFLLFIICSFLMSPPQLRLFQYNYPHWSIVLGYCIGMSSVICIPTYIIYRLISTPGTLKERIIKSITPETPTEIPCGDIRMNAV

[18] = target: T1, Sodium-dependent serotonin transporter; test: Inhibition of radiolabeled serotonin uptake from rat brain SERT
[19] = Lipophilicity, log D of the compound; format: physicochemical; conditions: octanol/water
[20] = Partition coefficient, log P of the compound; format: physicochemical; conditions: octanol/water
[21] = Metabolic stability in human liver microsomes assessed as systemic clearance at 1 uM after 15 mins by LC-MS/MS analysis; format: ADME, Microsome
[22] = Metabolic stability in rat liver microsomes assessed as systemic clearance at 1 uM after 15 mins by LC-MS/MS analysis; format: ADME, Microsome
[23] = Oral bioavailability in human; format: ADME, organism-based; conditions: in vivo
[24] = Drug excretion in human urine; format: ADME; conditions: read-out: Activity
[25] = target: T2, Transporter (Rattus norvegicus, UniProt Q63380)
T2 sequence (Q63380 whole entry): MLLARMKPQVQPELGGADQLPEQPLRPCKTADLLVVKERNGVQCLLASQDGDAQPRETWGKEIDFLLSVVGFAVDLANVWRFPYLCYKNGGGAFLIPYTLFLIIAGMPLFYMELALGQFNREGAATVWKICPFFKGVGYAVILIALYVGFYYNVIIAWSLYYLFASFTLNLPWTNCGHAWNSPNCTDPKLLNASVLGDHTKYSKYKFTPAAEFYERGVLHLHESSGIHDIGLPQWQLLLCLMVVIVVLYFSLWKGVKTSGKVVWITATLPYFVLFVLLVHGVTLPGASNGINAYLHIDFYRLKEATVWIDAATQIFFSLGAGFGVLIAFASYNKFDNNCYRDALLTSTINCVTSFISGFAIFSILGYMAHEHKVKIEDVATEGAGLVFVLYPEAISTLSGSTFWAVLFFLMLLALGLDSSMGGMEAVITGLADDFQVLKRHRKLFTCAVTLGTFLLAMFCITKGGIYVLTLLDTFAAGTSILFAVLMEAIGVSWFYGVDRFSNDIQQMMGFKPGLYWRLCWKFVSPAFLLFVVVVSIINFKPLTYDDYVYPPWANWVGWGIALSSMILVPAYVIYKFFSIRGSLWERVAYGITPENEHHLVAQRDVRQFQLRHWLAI
Description: Inhibition of radiolabeled noradrenaline uptake from rat brain NET

[26] = physchem
Description: Dissociation constant, pKa of the compound

[27] = target: Sodium-dependent dopamine transporter (Rattus norvegicus, UniProt P23977); test: biochemical
Sodium-dependent dopamine transporter (Rattus norvegicus, UniProt P23977), sequence (P23977 whole entry): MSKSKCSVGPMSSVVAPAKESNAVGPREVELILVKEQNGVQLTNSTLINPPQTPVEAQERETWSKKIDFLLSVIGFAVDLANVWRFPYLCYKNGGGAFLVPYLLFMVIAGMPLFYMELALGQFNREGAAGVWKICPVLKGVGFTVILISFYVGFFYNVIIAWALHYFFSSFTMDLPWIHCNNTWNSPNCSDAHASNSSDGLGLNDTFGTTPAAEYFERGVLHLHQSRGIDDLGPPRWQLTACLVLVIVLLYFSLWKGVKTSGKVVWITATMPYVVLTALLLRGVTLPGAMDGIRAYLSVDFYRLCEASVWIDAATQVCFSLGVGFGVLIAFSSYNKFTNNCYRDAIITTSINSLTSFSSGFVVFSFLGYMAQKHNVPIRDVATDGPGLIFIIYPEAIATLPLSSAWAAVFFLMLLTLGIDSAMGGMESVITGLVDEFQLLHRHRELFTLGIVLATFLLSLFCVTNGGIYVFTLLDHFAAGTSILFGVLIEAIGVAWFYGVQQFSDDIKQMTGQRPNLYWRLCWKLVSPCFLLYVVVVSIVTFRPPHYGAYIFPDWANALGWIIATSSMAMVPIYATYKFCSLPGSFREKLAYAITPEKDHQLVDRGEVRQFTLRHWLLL
Description: Displacement of 3,4-[ring-2,5,6-3H]dihydroxyphenylethylamine from rat synaptosomal DAT expressed in HEK293 cells by microplate scintillation counter

[28] = Cmax in Fischer 344 rat at 50 mg/kg, po; format: ADME, organism-based; parameters: dose 50 mg/kg, route oral; conditions: in vivo
[29] = Tmax in Fischer 344 rat at 50 mg/kg, po; format: ADME, organism-based; parameters: dose 50 mg/kg, route oral; conditions: in vivo
[30] = tested on: Rattus norvegicus; test: AUC in Fischer 344 rat at 50 mg/kg, po; format: ADME, organism-based, Plasma; parameters: dose 50 mg/kg, route oral; conditions: in vivo
[31] = Apparent elimination half life in Fischer 344 rat at 50 mg/kg, po; format: ADME, organism-based; parameters: dose 50 mg/kg, route oral; conditions: in vivo, read-out: beta t1/2 (converted)
[32] = tested on: Rattus norvegicus; test: Oral bioavailability in Fischer 344 rat at 50 mg/kg; format: ADME, organism-based; conditions: in vivo
[33] = in vitro; conditions: human, Caco-2
Description: Apparent permeability from apical to basolateral side of the human Caco-2 cells

[34] = target: Cytochrome P450 2D6 (Homo sapiens, UniProt P10635); test: Inhibition of CYP2D6; format: ADME
Cytochrome P450 2D6, sequence (P10635 whole entry): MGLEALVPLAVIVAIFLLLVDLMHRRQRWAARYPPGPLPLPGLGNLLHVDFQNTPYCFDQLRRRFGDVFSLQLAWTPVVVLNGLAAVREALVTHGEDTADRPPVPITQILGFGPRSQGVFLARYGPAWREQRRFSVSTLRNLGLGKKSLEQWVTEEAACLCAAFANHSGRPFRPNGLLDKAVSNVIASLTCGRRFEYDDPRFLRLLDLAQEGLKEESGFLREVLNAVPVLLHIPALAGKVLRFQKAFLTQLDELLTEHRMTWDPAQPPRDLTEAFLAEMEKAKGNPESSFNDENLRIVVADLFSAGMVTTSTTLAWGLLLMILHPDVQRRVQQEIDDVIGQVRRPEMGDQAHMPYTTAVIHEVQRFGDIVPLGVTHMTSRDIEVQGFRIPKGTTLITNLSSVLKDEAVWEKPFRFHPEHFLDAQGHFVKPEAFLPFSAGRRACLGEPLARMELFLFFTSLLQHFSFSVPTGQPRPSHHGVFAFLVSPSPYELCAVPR

[35] = Cmax in Sprague-Dawley rat at 30 mg/kg, po; format: ADME, organism-based; parameters: dose 30 mg/kg, route oral; conditions: in vivo
[36] = Tmax in Sprague-Dawley rat at 30 mg/kg, po; format: ADME, organism-based; parameters: dose 30 mg/kg, route oral; conditions: in vivo
[37] = AUC in Sprague-Dawley rat at 30 mg/kg, po; format: ADME, organism-based; parameters: dose 30 mg/kg, route oral; conditions: plasma
[38] = Apparent elimination half life in Sprague-Dawley rat at 30 mg/kg, po; format: ADME, organism-based; parameters: dose 30 mg/kg, route oral; conditions: in vivo, read-out: beta t1/2 (converted)
[39] = Apparent oral clearance in Sprague-Dawley rat at 30 mg/kg, po; format: ADME, organism-based; parameters: dose 30 mg/kg, route oral; conditions: in vivo
[40] = Drug level in Sprague-Dawley rat brain at 30 mg/kg, po after 1 hr; format: ADME, organism-based; parameters: dose 30 mg/kg, route oral; conditions: read-out: Drug uptake
[41] = Drug level in Sprague-Dawley rat brain at 30 mg/kg, po after 4 hrs; format: ADME, organism-based; parameters: dose 30 mg/kg, route oral; conditions: read-out: Drug uptake
[42] = Ratio of drug level in brain to plasma in Sprague-Dawley rat at 30 mg/kg, po after 1 hr; format: ADME, organism-based; parameters: dose 30 mg/kg, route oral
[43] = Ratio of drug level in brain to plasma in Sprague-Dawley rat at 30 mg/kg, po after 4 hrs; format: ADME, organism-based; parameters: dose 30 mg/kg, route oral
[44] = AUC in Sprague-Dawley rat at 5 mg/kg, iv; format: ADME, organism-based; parameters: dose 5 mg/kg, route intravenous; conditions: plasma
[45] = Half life in Sprague-Dawley rat at 5 mg/kg, iv; format: ADME, organism-based; parameters: dose 5 mg/kg, route intravenous; conditions: in vivo
[46] = Mean residence time in Sprague-Dawley rat at 5 mg/kg, iv; format: ADME, organism-based; parameters: dose 5 mg/kg, route intravenous; conditions: in vivo
[47] = Plasma clearance in Sprague-Dawley rat at 5 mg/kg, iv; format: ADME, organism-based; parameters: dose 5 mg/kg, route intravenous
[48] = Renal clearance in Sprague-Dawley rat at 5 mg/kg, iv; format: ADME, organism-based, Kidney; parameters: dose 5 mg/kg, route intravenous; conditions: in vivo, read-out: CL_renal
[49] = Volume of distribution at steady state in Sprague-Dawley rat at 5 mg/kg, iv; format: ADME, organism-based; parameters: dose 5 mg/kg, route intravenous; conditions: in vivo, read-out: Vdss
[50] = Volume of distribution in Sprague-Dawley rat at 5 mg/kg, iv; format: ADME, organism-based; parameters: dose 5 mg/kg, route intravenous; conditions: in vivo
[51] = Bioavailability in Sprague-Dawley rat at 5 mg/kg, iv; format: ADME, organism-based; conditions: in vivo
[52] = tested on: Rattus norvegicus; test: Antinociceptive activity in CD rat assessed as reduction in number of hind paw flinching at 60 mg/kg, po by formalin test; format: functional; parameters: scale not given: the % may be the effect or the level left
[53] = Drug excretion in Sprague-Dawley rat urine at 5 mg/kg, iv; format: ADME, organism-based; parameters: dose 5 mg/kg, route intravenous; conditions: read-out: Activity
[54] = target: Voltage-gated inwardly rectifying potassium channel KCNH2 (Homo sapiens, UniProt Q12809)
Description: Inhibition of human ERG expressed in HEK293 cells by patch-clamp method

[55] = target: Sodium-dependent noradrenaline transporter (Homo sapiens, UniProt P23975); test: biochemical
Sodium-dependent noradrenaline transporter, sequence (P23975 whole entry): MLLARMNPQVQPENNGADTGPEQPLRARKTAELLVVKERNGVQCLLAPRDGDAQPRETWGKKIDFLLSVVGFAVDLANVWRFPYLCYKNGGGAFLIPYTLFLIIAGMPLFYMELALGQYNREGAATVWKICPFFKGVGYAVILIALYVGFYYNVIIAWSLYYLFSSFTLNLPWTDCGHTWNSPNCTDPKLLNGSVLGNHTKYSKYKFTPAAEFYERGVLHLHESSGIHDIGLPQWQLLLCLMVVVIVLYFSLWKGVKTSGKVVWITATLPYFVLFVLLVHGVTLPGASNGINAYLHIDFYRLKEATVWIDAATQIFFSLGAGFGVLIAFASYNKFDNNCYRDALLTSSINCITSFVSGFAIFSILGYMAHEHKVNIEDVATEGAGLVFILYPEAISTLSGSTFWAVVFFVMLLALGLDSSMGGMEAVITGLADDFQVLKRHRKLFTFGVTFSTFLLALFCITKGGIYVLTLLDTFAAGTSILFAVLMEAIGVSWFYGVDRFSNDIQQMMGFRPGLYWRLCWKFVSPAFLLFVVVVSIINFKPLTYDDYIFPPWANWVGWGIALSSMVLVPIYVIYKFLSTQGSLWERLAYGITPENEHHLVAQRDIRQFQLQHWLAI
Description: Displacement of Levo[ring-2,5,6-3H]norepinephrine from human cloned NET expressed in HEK293 cells by microplate scintillation counter

[56] = target: Sodium-dependent serotonin transporter (Homo sapiens, UniProt P31645); test: biochemical
Sodium-dependent serotonin transporter (Homo sapiens, UniProt P31645), sequence (P31645 whole entry): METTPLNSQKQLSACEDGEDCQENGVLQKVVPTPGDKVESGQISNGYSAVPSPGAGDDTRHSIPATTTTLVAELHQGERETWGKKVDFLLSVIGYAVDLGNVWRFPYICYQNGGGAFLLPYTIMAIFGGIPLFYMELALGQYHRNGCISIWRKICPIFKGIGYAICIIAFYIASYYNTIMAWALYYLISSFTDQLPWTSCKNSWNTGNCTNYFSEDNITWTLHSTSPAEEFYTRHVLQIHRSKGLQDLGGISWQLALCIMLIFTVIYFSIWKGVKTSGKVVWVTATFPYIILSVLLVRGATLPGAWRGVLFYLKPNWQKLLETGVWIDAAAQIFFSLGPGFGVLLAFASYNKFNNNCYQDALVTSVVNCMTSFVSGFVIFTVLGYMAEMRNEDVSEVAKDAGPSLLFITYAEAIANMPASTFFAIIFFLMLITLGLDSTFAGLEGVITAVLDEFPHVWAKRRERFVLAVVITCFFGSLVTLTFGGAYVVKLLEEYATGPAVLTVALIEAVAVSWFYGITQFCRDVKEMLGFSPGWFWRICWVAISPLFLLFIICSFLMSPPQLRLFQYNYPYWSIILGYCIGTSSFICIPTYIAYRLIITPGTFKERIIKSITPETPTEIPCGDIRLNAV
Description: Displacement of [alpha,beta-3H(N)]-5-hydroxytryptamine from human cloned SERT expressed in HEK293 cells by microplate scintillation counter

[57] = target: Sodium-dependent dopamine transporter (Homo sapiens, UniProt Q01959); test: biochemical
Sodium-dependent dopamine transporter (Homo sapiens, UniProt Q01959), sequence (Q01959 whole entry): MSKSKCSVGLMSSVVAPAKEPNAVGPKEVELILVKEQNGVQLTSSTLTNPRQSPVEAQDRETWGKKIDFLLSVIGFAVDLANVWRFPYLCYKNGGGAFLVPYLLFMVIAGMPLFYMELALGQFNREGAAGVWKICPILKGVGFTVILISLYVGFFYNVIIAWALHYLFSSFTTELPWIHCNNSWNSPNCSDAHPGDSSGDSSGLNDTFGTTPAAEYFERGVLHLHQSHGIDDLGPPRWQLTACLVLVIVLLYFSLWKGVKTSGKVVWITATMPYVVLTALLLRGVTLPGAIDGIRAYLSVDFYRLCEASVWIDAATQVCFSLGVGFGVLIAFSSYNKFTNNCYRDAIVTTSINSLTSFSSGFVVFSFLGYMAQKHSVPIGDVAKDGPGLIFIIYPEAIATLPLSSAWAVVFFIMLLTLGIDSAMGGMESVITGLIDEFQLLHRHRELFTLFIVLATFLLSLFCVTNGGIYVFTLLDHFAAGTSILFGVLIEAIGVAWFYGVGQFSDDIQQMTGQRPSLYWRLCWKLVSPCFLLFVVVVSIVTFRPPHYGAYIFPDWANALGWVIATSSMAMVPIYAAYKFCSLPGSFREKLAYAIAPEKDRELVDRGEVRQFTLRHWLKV
Description: Displacement of 3,4-[ring-2,5,6-3H]dihydroxyphenylethylamine from human cloned DAT expressed in HEK293 cells by microplate scintillation counter

[58] = target: T2, Transporter; test: biochemical
Description: Displacement of Levo[ring-2,5,6-3H]norepinephrine from rat synaptosomal NET expressed in HEK293 cells by microplate scintillation counter

[59] = tested on: Rattus norvegicus; test: Reversal of pin-prick-induced neuropathic mechanical hyperalgesia in Harlan Sprague-Dawley rat sciatic nerve ligation model at 30 mg/kg, po; format: functional

Structure (SMILES): C=C(F)CN(CC)C(=O)[C@@]1(c2cccs2)C[C@H]1CN.Cl
- clearance [1]: 34 mL/min/kg
- CL renal [2]: 6 mL/min/kg
- half-life [3]: 4.3 h
- Vd [4]: 4.4 L/kg
- Cmax [5]: 2440 ng/mL
- Tmax [6]: 2.3 h
- AUC [7]: 9050 ng·h/mL
- bioavailability [8]: 70%
- clearance [9]: 10.8 mL/min/kg
- CL renal [10]: 2.2 mL/min/kg
- half-life [11]: 3.5 h
- Vd [12]: 2.4 L/kg
- Cmax [13]: 5570 ng/mL
- Tmax [14]: 1.2 h
- AUC [15]: 47500 ng·h/mL
- bioavailability [16]: 109%

Structure (SMILES): CCN(CC)C(=O)C1(c2ccccc2)CC1CN (stereo not drawn)
- IC50 [17]: 47 nM
- IC50 [18]: 203 nM
- logD [19]: 0.2
- logP [20]: 1.7
- CLhep predicted at 1 µM [21]: 3.1 mL/min/kg
- CLhep predicted at 1 µM [22]: 24 mL/min/kg
- bioavailability [23]: 85%
- dose excreted [24]: > 80%
- IC50 [25]: 100 nM
- pKa [26]: 9.5
- IC50 [27]: 37000 nM

Structure (SMILES): CNCC[C@@H](Oc1ccccc1C)c1ccccc1 [ATOMOXETINE]
- Cmax [28]: 170 ng/mL
- Tmax [29]: 2 h
- AUC [30]: 910 ng·h/mL
- half-life [31]: 2.8 h
- F [32]: 1.5%
- Papp A→B [33]: 43.7 ×10⁻⁶ cm/s

Structure (SMILES): C=C(F)CN(CC)C(=O)[C@@]1(c2cccs2)C[C@H]1CN
- IC50 [17]: 160 nM
- logD [19]: 0.2
- logP [20]: 1.8
- CLhep predicted at 1 µM [21]: 2.6 mL/min/kg
- CLhep predicted at 1 µM [22]: 54 mL/min/kg
- IC50 [34]: 6000 nM
- Cmax [35]: 974 ng/mL
- Tmax [36]: 0.4 h
- AUC [37]: 1500 ng·h/mL
- half-life [38]: 0.9 h
- CL/F [39]: 334 mL/min/kg
- concentration at 1 h [40]: 70 ng/g
- concentration at 4 h [41]: 31 ng/g
- Kp at 1 h [42]: 0.73
- Kp at 4 h [43]: 1.1
- AUC [44]: 532 ng·h/mL
- half-life [45]: 0.6 h
- MRT [46]: 0.7 h
- clearance [47]: 140 mL/min/kg
- CL renal [48]: 59 mL/min/kg
- Vd [49]: 5.5 L/kg
- Vd [50]: 7.5 L/kg
- bioavailability [51]: 47%
- Activity [52]: 56%
- dose excreted [53]: 30%
- IC50 [54]: > 10000 nM
- pKa [26]: 9.4
- Papp A→B [33]: 16.7 ×10⁻⁶ cm/s
- IC50 [55]: 4.4 nM
- IC50 [56]: 97 nM
- IC50 [57]: > 10000 nM
- IC50 [58]: 21 nM
- IC50 [27]: > 10000 nM

Structure (SMILES): C=CCN(CC=C)C(=O)[C@@]1(c2cccs2)C[C@H]1CN
- IC50 [17]: 11 nM
- logD [19]: 0.3
- logP [20]: 2
- CLhep predicted at 1 µM [21]: 9.9 mL/min/kg
- CLhep predicted at 1 µM [22]: 61 mL/min/kg
- IC50 [34]: 6000 nM
- Cmax [35]: 522 ng/mL
- Tmax [36]: 0.5 h
- AUC [37]: 1130 ng·h/mL
- half-life [38]: 1.2 h
- CL/F [39]: 444 mL/min/kg
- concentration at 1 h [40]: 127 ng/g
- concentration at 4 h [41]: 26 ng/g
- Kp at 1 h [42]: 0.6
- Kp at 4 h [43]: 1.4
- AUC [44]: 721 ng·h/mL
- half-life [45]: 0.6 h
- MRT [46]: 0.7 h
- clearance [47]: 102 mL/min/kg
- CL renal [48]: 11 mL/min/kg
- Vd [49]: 4.4 L/kg
- Vd [50]: 5.3 L/kg
- bioavailability [51]: 12%
- Activity [52]: 56%
- Activity [59]: 60%
- pKa [26]: 9.4
- Papp A→B [33]: 16.7 ×10⁻⁶ cm/s
- IC50 [55]: 2.3 nM
- IC50 [56]: 32 nM
- IC50 [57]: > 10000 nM
- IC50 [58]: 4.6 nM
- IC50 [27]: 19000 nM
